Source: patent publication US10077261B2, “Imidazolin-5-one derivative useful as FASN inhibitors for the treatment of cancer” (Janssen Pharmaceutica NV, priority 2012, dated 2018)

Columns and labels:
[1] = test system: PC-3M-Luc-C6 prostate cells; test: In vitro PC-3M-Luc-C6 prostate cell proliferation assay in lipid reduced medium; assay type: cell-based; conditions: 96 h, read-out: pIC50 PC-3M-Luc-C6 prostate cell (converted)
Description: PC-3M-Luc-C6 prostate cells were obtained from Xenogen Corporation. Cells were maintained in MEM supplemented with 10% Fetal Calf Serum (FCS, Hyclone), 2 mM glutamine, 1 mM sodium pyruvate, 1% BME vitamins (available from for example, Sigma Aldrich), 0.1 mM non Essential Amino Acid and 50 μg/ml Gentamicin. The cells were passaged twice a week.
The next day 10 μl test compound/DMSO diluted in medium was added (3E-5M, 1E-5M, 3E-6M, 1E-6M, 3E-7M, 1E-7M, 3E-8M, 1E-8M final concentration). Compounds were tested in duplicate. After 96 h incubation at 37° C., 5% CO2 25 μl ATP-glow mix was added. The plate was incubated for 30 min at 37° C. and luminescence was measured with the Envision.
Analysis: Determination of pIC50 Values
pIC50 values were calculated as follows.
where mLC and mHC are the means of the low control wells and high control wells on the plate, after manual exclusion of outliers. The relation between the % Controlmin values and concentration was fitted to a 4-parameter logistic curve using a non-linear least squares regression method to determine the pIC50 value. Outlying data points were excluded manually to get a correct fit. The pIC50 corresponds to −log 10(IC50), if the IC50 is expressed in molar units (http://www.ncbi.nlm.nih.gov/books/NBK91994). The IC50 parameter was always determined by non-linear regression, but one or more of the other parameters may have been held fixed on a relevant input value, such as 0 for the bottom values.

[2] = test system: LNCaP-Vancouver prostate cells; test: In vitro LNCaP Vancouver prostate cell proliferation assay in lipid reduced medium; assay type: cell-based; conditions: read-out: pIC50 LNCaP_Vancouver prostate cell (converted)
[3] = test system: A2780 ovarian cells; test: A2780 ovarian cell proliferation assay in lipid reduced medium, without palmitate (MTT); assay type: cell-based; conditions: Homo sapiens, A2780, 96 h; read-out: pIC50 A2780 Ovarian Cell, Without Palmitate (converted)
[4] = test system: A2780 ovarian cells; test: A2780 ovarian cell proliferation assay in lipid reduced medium, with palmitate (MTT); assay type: cell-based; conditions: Homo sapiens, A2780, 96 h; read-out: pIC50 A2780 Ovarian Cell, With Palmitate (converted)
Outline: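 In this palmitate-supplemented format, compound dilutions (30 μM down to 0.01 μM) are added to cells in lipid-reduced serum with 25 μM palmitate, 0.2% fatty-acid-free BSA and 0.25% ethanol. After four days (96 h) MTT absorbance at 544 nm is recorded and fitted by minimum sum of squares.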

[5] = target: T1, hFASN enzyme (full length) (Homo sapiens, UniProt P49327); test: Fatty Acid Synthase (FASN) inhibition scintillation proximity assay; assay type: biochemical; conditions: for inhibition at 10 µM: read-out: Human FASN % inhibition @ 10 μM, 10 μM test compound; for IC50: read-out: Human FASN pIC50 (converted)
T1 construct: 10 μL hFASN enzyme (full length, 300 ng, purified in house); made in house
T1 sequence (P49327 whole entry): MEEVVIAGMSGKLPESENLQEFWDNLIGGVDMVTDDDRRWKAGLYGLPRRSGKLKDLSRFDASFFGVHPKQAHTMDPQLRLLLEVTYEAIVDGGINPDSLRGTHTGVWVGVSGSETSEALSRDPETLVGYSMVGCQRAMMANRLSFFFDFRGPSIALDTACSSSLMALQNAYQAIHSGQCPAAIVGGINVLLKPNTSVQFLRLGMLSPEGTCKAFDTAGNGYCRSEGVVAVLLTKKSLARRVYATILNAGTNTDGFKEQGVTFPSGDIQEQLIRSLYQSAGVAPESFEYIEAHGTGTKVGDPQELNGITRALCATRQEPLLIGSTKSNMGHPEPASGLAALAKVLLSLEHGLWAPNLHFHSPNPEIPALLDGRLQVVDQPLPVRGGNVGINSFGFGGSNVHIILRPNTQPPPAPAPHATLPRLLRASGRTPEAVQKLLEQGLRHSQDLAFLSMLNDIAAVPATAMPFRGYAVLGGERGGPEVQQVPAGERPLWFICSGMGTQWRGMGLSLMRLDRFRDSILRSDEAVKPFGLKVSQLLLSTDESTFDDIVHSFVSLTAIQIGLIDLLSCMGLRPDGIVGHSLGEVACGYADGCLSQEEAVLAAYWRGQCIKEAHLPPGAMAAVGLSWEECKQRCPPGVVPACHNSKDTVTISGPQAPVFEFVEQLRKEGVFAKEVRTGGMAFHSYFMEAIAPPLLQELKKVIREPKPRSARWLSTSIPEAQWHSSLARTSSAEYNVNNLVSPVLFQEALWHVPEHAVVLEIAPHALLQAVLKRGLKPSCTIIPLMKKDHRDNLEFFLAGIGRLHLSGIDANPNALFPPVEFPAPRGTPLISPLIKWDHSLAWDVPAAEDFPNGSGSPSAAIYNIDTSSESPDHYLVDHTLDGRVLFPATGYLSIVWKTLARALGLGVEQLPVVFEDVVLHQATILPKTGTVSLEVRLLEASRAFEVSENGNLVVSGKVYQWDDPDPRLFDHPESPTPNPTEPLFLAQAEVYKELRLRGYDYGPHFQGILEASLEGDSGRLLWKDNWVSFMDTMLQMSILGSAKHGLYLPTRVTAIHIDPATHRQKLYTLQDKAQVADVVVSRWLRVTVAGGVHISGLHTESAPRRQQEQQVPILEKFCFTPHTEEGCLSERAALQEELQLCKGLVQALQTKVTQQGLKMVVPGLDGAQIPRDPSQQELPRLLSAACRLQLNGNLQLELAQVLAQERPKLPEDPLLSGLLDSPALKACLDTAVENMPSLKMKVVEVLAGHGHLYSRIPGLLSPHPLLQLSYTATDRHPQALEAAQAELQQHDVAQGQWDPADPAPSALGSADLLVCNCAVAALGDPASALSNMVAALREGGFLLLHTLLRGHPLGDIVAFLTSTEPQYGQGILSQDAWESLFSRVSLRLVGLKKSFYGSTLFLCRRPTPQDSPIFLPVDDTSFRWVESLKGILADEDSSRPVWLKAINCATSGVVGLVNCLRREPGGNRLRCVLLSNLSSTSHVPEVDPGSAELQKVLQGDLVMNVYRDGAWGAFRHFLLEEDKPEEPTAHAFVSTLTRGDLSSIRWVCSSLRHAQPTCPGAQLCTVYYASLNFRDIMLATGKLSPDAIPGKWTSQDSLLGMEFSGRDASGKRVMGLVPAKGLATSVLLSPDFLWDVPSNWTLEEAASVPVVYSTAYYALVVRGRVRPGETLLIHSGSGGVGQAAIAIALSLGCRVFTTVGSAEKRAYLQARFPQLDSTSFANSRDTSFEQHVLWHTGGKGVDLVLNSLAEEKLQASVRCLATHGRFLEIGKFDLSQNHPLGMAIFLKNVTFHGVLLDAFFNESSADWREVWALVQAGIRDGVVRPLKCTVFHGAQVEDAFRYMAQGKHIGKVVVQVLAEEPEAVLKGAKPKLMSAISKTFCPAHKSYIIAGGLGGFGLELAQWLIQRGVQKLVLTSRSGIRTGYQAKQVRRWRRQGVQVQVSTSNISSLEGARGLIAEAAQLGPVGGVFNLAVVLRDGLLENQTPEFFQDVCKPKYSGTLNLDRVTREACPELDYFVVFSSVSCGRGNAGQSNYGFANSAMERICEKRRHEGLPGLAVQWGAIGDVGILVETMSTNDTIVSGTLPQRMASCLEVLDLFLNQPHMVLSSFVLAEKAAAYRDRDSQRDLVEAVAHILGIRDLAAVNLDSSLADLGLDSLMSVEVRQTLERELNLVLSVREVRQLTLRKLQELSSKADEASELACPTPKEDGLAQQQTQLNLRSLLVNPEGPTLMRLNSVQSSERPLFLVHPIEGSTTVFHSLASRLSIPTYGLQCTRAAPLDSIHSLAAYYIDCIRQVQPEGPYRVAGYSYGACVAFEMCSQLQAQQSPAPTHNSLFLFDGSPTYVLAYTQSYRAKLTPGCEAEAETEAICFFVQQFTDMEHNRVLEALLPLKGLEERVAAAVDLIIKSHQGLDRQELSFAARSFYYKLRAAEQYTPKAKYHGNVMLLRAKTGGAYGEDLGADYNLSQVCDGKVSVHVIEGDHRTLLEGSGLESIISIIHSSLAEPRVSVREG
Outline: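 Scintillation proximity format: in-house full-length enzyme, 300 ng per well, pH 7.5 phosphate/DTT buffer, ³H-acetyl-CoA and malonyl-CoA. Emission counted on LEADseeker at 610 nm at least 24 h after stopping.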

[6] = target: Fatty Acid Synthase Keto-reductase Domain (FASN KR) (Homo sapiens, UniProt P49327); test: Fatty Acid Synthase keto-reductase domain (FASN KR) inhibition, NADPH oxidation at 340 nm
Chain of Fatty Acid Synthase Keto-reductase Domain (FASN KR) (P49327 whole entry, the tested form may be a part): as the sequence (P49327 whole entry) above
Description: After 20 minutes incubation at room temperature the plate was measured again (T2).
The decrease in absorbance was calculated as (Absorbance before incubation T1)−(Absorbance following incubation T2).
A plot of Controlmin versus test compound concentration was fitted to a 4-parameter logistic curve using a non-linear least squares regression method.

| SMILES | IC50 [1] | IC50 [2] | IC50 [3] | IC50 [4] | inhibition at 10 µM [5] | IC50 [5] | IC50 [6] |
| --- | --- | --- | --- | --- | --- | --- | --- |
| COC(=O)N1CC2(C1)N=C(c1ccc(-c3ccc4c(cnn4C)c3)cc1)N(C[C@@H]1CCN(C(=O)C3CC3)C1)C2=O [compound 737, Methyl 7-{[(3R)-1-(cyclopropylcarbonyl)pyrrolidin-3-yl]methyl}-6-[4-(1-methyl-1H-indazol-5-yl)phenyl]-8-oxo-2,5,7-triazaspiro[3.4]oct-5-ene-2-carboxylate] | 708 nM | ~3720 nM | – | – | – | – | – |
| O=C(C1CC1)N1CC[C@@H](CN2C(=O)C3(CCCC3)N=C2c2ccc(-c3ccc4occc4c3)cc2)C1 [compound 2, 2-[4-(1-Benzofuran-5-yl)phenyl]-3-{[(3R)-1-(cyclopropylcarbonyl)pyrrolidin-3-yl]methyl-}3-diazaspiro[4.4]non-1-en-4-one] | ~661 nM | – | 977 nM | > 10000 nM | 109% | 45.7 nM | 89.1 nM |
| Cc1cc(-c2ccc3c(cnn3C)c2)ccc1C1=NC2(CC2)C(=O)N1CC1CN(C(=O)C(C)(C)CO)C1 [compound 546, 6-{[1-(3-Hydroxy-2,2-dimethylpropanoyl)azetidin-3-yl]methyl}-5-[2-methyl-4-(1-methyl-1H-indazol-5-yl)phenyl]-4,6-diazaspiro[2.4]hept-4-en-7-one] | ~309 nM | – | ~195 nM | > 10000 nM | 100% | 204 nM | 603 nM |
| O=C(Nc1cccc(-c2ccc(C3=NC4(CC4)C(=O)N3C[C@@H]3CCN(C(=O)C4CC4)C3)c(F)c2)c1)C1CC1 [compound 585, N-[4′-(6-{[(3R)-1-(Cyclopropylcarbonyl)pyrrolidin-3-yl]methyl}-7-oxo-4,6-diazaspiro[2.4]hept-4-en-5-yl)-3′-fluorobiphenyl-3-yl]cyclopropanecarboxamide] | 100 nM | – | 83.2 nM | > 10000 nM | 99% | 112 nM | 162 nM |
| O=C(C1CC1)N1CC[C@@H](CN2C(=O)C3(CC3)N=C2c2ccc(-c3c[nH]c4ccccc34)cc2)C1 [compound 314, (R)-5-(4-(1H-indol-3-yl)phenyl)-6-((1-(cyclopropanecarbonyl)pyrrolidin-3-yl)methyl)-4,6-diazaspiro[2.4]hept-4-en-7-one] | 57.5 nM | 309 nM | – | – | – | – | – |
| Cc1cc2cc(-c3ccc(C4=NC5(CC5)C(=O)N4CC4CN(C(=O)C5CC5)C4)c(C)c3)ccc2[nH]1 [compound 263, 6-((1-(cyclopropanecarbonyl)azetidin-3-yl)methyl)-5-(2-methyl-4-(2-methyl-1H-indol-5-yl)phenyl)-4,6-diazaspiro[2.4]hept-4-en-7-one] | 112 nM | – | 120 nM | > 10000 nM | 105% | 51.3 nM | 251 nM |
| Cn1cnc2cc(-c3ccc(C4=NC5(CC5)C(=O)N4CC4CN(C(=O)C5CC5)C4)cc3)ccc21 [compound 343, 6-((1-(cyclopropanecarbonyl)azetidin-3-yl)mehtyl)-5-(4-(1-methyl-1H-benzo[d]imidazol-5-yl)phenyl)-4,6-diazaspiro[2.4]hept-4-en-7-one] | 81.3 nM | 240 nM | – | – | 98% | – | – |
| Cc1cc(-c2ccc3cc(C)c(Cl)nc3c2)ccc1C1=NC2(CC2)C(=O)N1CC1CN(C(=O)C2(C)CC2)C1 [compound 596] | ~759 nM | – | 457 nM | 6310 nM | 102% | 186 nM | 589 nM |
| O=C(C1CC1)N1CC(CN2C(=O)C3(CC3)N=C2c2ccc(-c3cccc4[nH]ncc34)c(F)c2)C1 [compound 443, 6-{[1-(Cyclopropylcarbonyl)azetidin-3-yl]methyl}-5-[3-fluoro-4-(1H-indazol-4-yl)phenyl]-4,6-diazaspiro[2.4]hept-4-en-7-one] | 851 nM | – | 794 nM | > 10000 nM | 88% | 912 nM | 1050 nM |
| Cc1cc(-c2ccc3c(c2)c(CO)nn3C)ccc1C1=NC2(CC2)C(=O)N1CC1CN(C(=O)C2CC2)C1 [compound 586, 6-{[1-(Cyclopropylcarbonyl)azetidin-3-yl]methyl}-5-{4-[3-(hydroxymethyl)-1-methyl-1H-indazol-5-yl]-2-methylphenyl}-4,6-diazaspiro[2.4]hept-4-en-7-one] | 1020 nM | – | ~851 nM | > 10000 nM | 93% | 525 nM | 1660 nM |
| O=C(C1CC1)N1CC(CN2C(=O)C3(CC3)N=C2c2ccc(-c3ccc4ccccc4n3)cc2)C1 [compound 345, 6-((1-(cyclopropanecarbonyl)azetidin-3-yl)methyl)-5-(4-(quinolin-2-yl)phenyl)-4,6-diazaspiro[2.4]hept-4-en-7-one] | 562 nM | 1200 nM | – | – | 99% | – | – |
| Cc1cc(-c2ccc3c(c2)c(Cl)nn3C)ccc1C1=NC2(CC2)C(=O)N1CC1CN(C(=O)C2CC2)C1 [compound 591, 5-[4-(3-Chloro-1-methyl-1H-indazol-5-yl)-2-methylphenyl]-6-{[1-(cyclopropylcarbonyl)azetidin-3-yl]methyl}-4,6-diazaspiro[2.4]hept-4-en-7-one] | 372 nM | – | ~347 nM | > 10000 nM | 93% | 195 nM | 1050 nM |

Second part, the compound after the results:

| IC50 [1] | IC50 [2] | IC50 [3] | IC50 [4] | inhibition at 10 µM [5] | IC50 [5] | IC50 [6] | SMILES |
| --- | --- | --- | --- | --- | --- | --- | --- |
| 501 nM | 2340 nM | ~398 nM | > 10000 nM | – | – | – | O=C(C1CC1)N1CC[C@@H](CN2C(=O)C3(CC3)N=C2c2ccc(-c3n[nH]c4ccccc34)cc2)C1 [compound 528, 6-{[(3R)-1-(Cyclopropylcarbonyl)pyrrolidin-3-yl]methyl}-5-[4-(1H-indazol-3-yl)phenyl]-4,6-diazaspiro[2.4]hept-4-en-7-one] |
| 447 nM | 977 nM | 537 nM | > 10000 nM | – | – | – | Cn1ncc2cc(-c3ccc(C4=NC5(CC5)C(=O)N4C[C@H]4CCN(C(=O)C5CC5)C4)cc3)ccc21 [compound 410, 6-{[(3S)-1-(Cyclopropylcarbonyl)pyrrolidin-3-yl]methyl}-5-[4-(1-methyl-1H-indazol-5-yl)phenyl]-4,6-diazaspiro[2.4]hept-4-en-7-one] |
| 52.5 nM | – | ~70.8 nM | > 10000 nM | 100% | 66.1 nM | 123 nM | O=C(C1CC1)N1CC[C@@H](CN2C(=O)C3(CC3)N=C2c2ccc(-c3cccc(NS(=O)(=O)C4CC4)c3)cc2F)C1 [compound 318] |
| 16.6 nM | 437 nM | 13.2 nM | > 10000 nM | – | – | – | O=C(C1CC1)N1CC[C@@H](CN2C(=O)C3(CC3)N=C2c2ccc(-c3cccc4[nH]ncc34)cc2)C1 [compound 302] |
| ~295 nM | – | ~200 nM | 4270 nM | 93% | 316 nM | 631 nM | Cc1cc(-c2ccc3cc(OC(C)C)ccc3c2)ccc1C1=NC2(CC2)C(=O)N1CC1CN(C(=O)C2(C)CC2)C1 [compound 581, 6-({1-[(1-Methylcyclopropyl)carbonyl]azetidin-3-yl}methyl)-5-{2-methyl-4-[6-(1-methylethoxy)naphthalen-2-yl]phenyl}-4,6-diazaspiro[2.4]hept-4-en-7-one] |
| 479 nM | 5370 nM | – | – | – | – | – | O=C(C1CC1)N1CC[C@@H](CN2C(=O)C3(CC3)N=C2c2ccc(-c3nc4ccccc4[nH]3)cc2)C1 [compound 497, 5-[4-(1H-Benzimidazol-2-yl)phenyl]-6-{[(3R)-1-(cyclopropylcarbonyl)pyrrolidin-3-yl]methyl}-4,6-diazaspiro[2.4]hept-4-en-7-one] |
| 513 nM | – | 257 nM | > 10000 nM | 94% | 200 nM | 339 nM | O=C(C1CC1)N1CC(CN2C(=O)C3(CC3)N=C2c2ccc(-c3ccc4cc[nH]c4c3)c(F)c2)C1 [compound 442, 6-{[1-(Cyclopropylcarbonyl)azetidin-3-yl]methyl}-5-[3-fluoro-4-(1H-indol-6-yl)phenyl]-4,6-diazaspiro[2.4]hept-4-en-7-one] |
